Residues, ends and D or L forms follow the SMILES beside them.
Key:
[1] = test system: established P. aeruginosa biofilms; test: SYTOX Green membrane permeabilization assay on biofilm; format: cell-based, Pseudomonas aeruginosa; details: maximum percentage at final incubation time, 10% Triton X-100 reference
Experimental: (§1) Membrane permeabilization was followed using the method SYTOX Green Fluorescence membrane permeabilization assay. In the planktonic assay, bacterial cells were grown at 37° C. to an OD600=0.2, centrifuged at 5000×g for 5 min, and resuspended in 1×PBS to an OD600=0.2. An aliquot of 200 μl was then transferred to a microtiter plate. For biofilm assay, 24 h formed P. aeruginosa biofilm in a 96-well microtiter plate were washed three times with sterile PBS. SYTOX Green was added to a final concentration of 1 μM and incubated 15 min in darkness. Changes in the fluorescence were continuously recorded after addition of a serially diluted protein/peptides from 50 to 0.1 μM in a Victor3 plate reader. The peptide concentration required to achieve half of total and total membrane permeabilization achieved after 40 min was estimated from nonlinear regression analysis as previously described (Pulido D. et al. Antimicrob Agents Chemother 2013). A maximum reference value was taken for Triton X-100 at 10%.
(§2) Thereupon, the antimicrobial mechanism of action of the RNase 3 derived peptide on P. aeruginosa biofilms was further characterized with the depolarization and permeabilization assays. As applied for the P. aeruginosa planktonic culture, the fluorescent DisC3(5) assay was also used here in order to monitor the depolarization activity of the studied protein and peptides against established biofilms. Therefore, we have measured the half depolarization action (ED50), and the total depolarization activity expressed as a percentage (Table 7). […] Similar results were obtained for the Sytox Green permeabilization assay, where the total permeabilization effect was hindered for all the AMPs tested, and between two to ten times higher concentrations were required to achieve half of the biofilm cell permeabilizing effect in comparison to the planktonic cells.

[2] = test system: LPS (lipopolysaccharides) from P. aeruginosa; test: LPS binding assay, BODIPY TR cadaverine (BC) displacement; design: species or system Pseudomonas aeruginosa; details: 100% = total displacement of the dye; mean ± SEM
Experimental: Following, LPS binding affinity was monitored by a fluorometric assay which measures the competitive displacement of a cadaverine fluorescent probe (BC) by the protein and peptides. The half LPS binding affinity (ED50), defined as the AMP concentration needed to achieve half of BC displacement, and the total LPS binding affinity, expressed as a percentage, were determined (Table 4). Interaction with negatively charged surfaces of bacteria is the first step for cationic peptides to reach the bacterial membranes and exert their antimicrobial action.
LPS binding was assessed using the fluorescent probe BODIPY TR cadaverine (BC) as previously described (Pulido D. et al. Febs J 2013). BC binds strongly to native LPS, specifically recognizing the lipid A portion. When a protein that interacts with LPS is added, BC is displaced from the complex and its fluorescence is increased, decreasing its occupancy factor. LPS-binding assays were carried out in a 10 mM Hepes buffer at pH 7.5. The displacement assay was performed using a 96 well microtiter plate containing stirred mixture of either LPS (10 μg/mL) and BC (10 μM). Protein/peptides were serially diluted from 10 to 0.1 μM. Fluorescence measurements were performed on a Victor3 plate reader (Perkin Elmer, Waltham, Mass.). The protein/peptide concentration required to achieve half of total and total BC displacement was estimated from nonlinear regression analysis as previously described (Wood S. J. et al. 2004)

[3] = test system: established P. aeruginosa biofilms; test: DiSC3(5) membrane depolarization assay on biofilm; format: cell-based, Pseudomonas aeruginosa; details: maximum percentage at final incubation time, 10% Triton X-100 reference
Experimental: Membrane depolarization was followed using the method described earlier (Torrent M. et al. 2008). Briefly, bacterial cells were grown at 37° C. to an OD600=0.2, centrifuged at 5000×g for 7 min, washed with 5 mM Hepes at pH 7.2 containing 20 mM glucose, and resuspended in 5 mM Hepes-KOH, 20 mM glucose, and 100 mM KCl at pH 7.2 to an OD600=0.05 and 200 μl were transferred to a microtiter plate for planktonic assays. For biofilm assay, 24 h formed P. aeruginosa biofilm in a 96-well microtiter plate were washed three times with sterile PBS. Afterwards P. aeruginosa biofilms were washed with 5 mM Hepes at pH 7.2 containing 20 mM glucose, and rinsed in 5 mM Hepes-KOH, 20 mM glucose, and 100 mM KCl at pH 7.2. In both cases, DiSC3(5) was added to a final concentration of 0.4 μM and changes in the fluorescence were continuously recorded after addition of peptides at 10 μM in a Victor3 plate reader. A maximum reference value for total depolarization is calculated for Triton X-100 at 10%. Alternatively, changes in the fluorescence were continuously recorded after addition of a serially diluted protein/peptides from 50 to 0.1 μM. The peptide concentration required to achieve half of total and total membrane depolarization after 40 min incubation time was estimated from nonlinear regression analysis as previously described (Torrent M. et al. 2010)
as §2

planktonic P. aeruginosa = test: SYTOX Green membrane permeabilization assay, planktonic; format: cell-based, Pseudomonas aeruginosa; details: for Permeabilization %max: 10% Triton X-100 as maximum reference
Experimental: Further insight into the membrane-permeabilizing effect of the selected AMPs against P. aeruginosa was evaluated by the Sytox Green assay. Local membrane disturbances allow the cell uptake of the fluorescent Sytox Green dye that subsequently stains the cell nucleic acids; the fluorescence increase is registered to monitor the cell membrane permeabilization. Therefore, the half permeabilization action (ED50) was measured, and the total permeabilization activity expressed as a percentage (Table 5). […] On the other hand, WY-12 and CA-M required a 6- to 7-fold greater concentration than RNase 3 to produce half of their permeabilizing effect.
as §1

Row | Compound | Permeabilization Mean % ± SEM [1] [%] | LPS binding %max (percentage of maximum displacement) [2] [%] | Depolarization Mean % ± SEM [3] [%] | Permeabilization %max (planktonic P. aeruginosa) [%] | Permeabilization ED50 (planktonic P. aeruginosa; 40 min, N.D. = not detected at 50 μM)
1 | CC[C@H](C)[C@H](NC(=O)CNC(=O)[C@@H](NC(=O)[C@H](CCCCN)NC(=O)[C@H](CCCCN)NC(=O)[C@H](Cc1ccccc1)NC(=O)[C@H](CC(C)C)NC(=O)[C@H](CCCCN)NC(=O)[C@H](Cc1c[nH]c2ccccc12)NC(=O)[C@@H](N)CCCCN)[C@@H](C)CC)C(=O)NCC(=O)N[C@@H](C)C(=O)N[C@H](C(=O)N[C@@H](CC(C)C)C(=O)N[C@@H](CCCCN)C(=O)N[C@H](C(=O)N[C@@H](CC(C)C)C(=O)N[C@H](C(=O)N[C@H](C(=O)NCC(=O)N[C@@H](CC(C)C)C(=O)N1CCC[C@H]1C(=O)N[C@@H](C)C(=O)N[C@@H](CC(C)C)C(=O)N[C@H](C(=O)N[C@@H](CO)C(N)=O)[C@@H](C)CC)[C@@H](C)O)[C@@H](C)O)C(C)C)C(C)C [CA-M] | 23.01 ± 1.13 | 69.16 ± 6.23 | 39.09 ± 2.46 | 34.69 ± 2.18 | 
2 | CC[C@H](C)[C@H](NC(=O)[C@H](CCC(N)=O)NC(=O)CN)C(=O)N[C@H](C(=O)N[C@@H](CC(N)=O)C(=O)N[C@@H](CC(C)C)C(=O)N[C@@H](CCCCN)C(=O)N[C@@H](C)C(=O)N[C@@H](CO)C(=O)N[C@@H](CC(C)C)C(=O)N[C@@H](CC(=O)O)C(=O)N[C@@H](CC(C)C)C(=O)N[C@@H](CC(C)C)C(N)=O)[C@@H](C)CC [GL-13, GQIINLKASLDLL-NH2] (H-GQIINLKASLDLL-NH2) |  | 44.37 ± 3.84 |  |  | unable to perform any cell membrane permeabilization
3 | CC[C@H](C)[C@H](NC(=O)[C@H](CCCCN)NC(=O)[C@H](CCC(=O)O)NC(=O)[C@H](CCCCN)NC(=O)[C@H](CO)NC(=O)[C@H](CCCCN)NC(=O)[C@H](CCCNC(=N)N)NC(=O)[C@H](Cc1ccccc1)NC(=O)[C@H](Cc1ccccc1)NC(=O)[C@H](CC(=O)O)NC(=O)CNC(=O)[C@H](CC(C)C)NC(=O)[C@@H](N)CC(C)C)C(=O)NCC(=O)N[C@@H](CCCCN)C(=O)N[C@@H](CCC(=O)O)C(=O)N[C@@H](Cc1ccccc1)C(=O)N[C@@H](CCCCN)C(=O)N[C@@H](CCCNC(=N)N)C(=O)N[C@H](C(=O)N[C@H](C(=O)N[C@@H](CCC(N)=O)C(=O)N[C@@H](CCCNC(=N)N)C(=O)N[C@H](C(=O)N[C@@H](CCCCN)C(=O)N[C@@H](CC(=O)O)C(=O)N[C@@H](Cc1ccccc1)C(=O)N[C@@H](CC(C)C)C(=O)N[C@@H](CCCNC(=N)N)C(=O)N[C@@H](CC(N)=O)C(=O)N[C@@H](CC(C)C)C(=O)N[C@H](C(=O)N1CCC[C@H]1C(=O)N[C@@H](CCCNC(=N)N)C(=O)N[C@H](C(=O)N[C@@H](CCC(=O)O)C(=O)N[C@@H](CO)C(N)=O)[C@@H](C)O)C(C)C)[C@@H](C)CC)C(C)C)[C@@H](C)CC [LL-37] | 24.21 ± 3.71 |  | 31.85 ± 1.15 | 38.80 ± 1.13 | 

Reference: patent US10487117B2, “Antimicrobial peptide for nosocomial infections” (priority 2015, dated 2019)
